The results in this text go back to patent US20250346571A1, “BICYCLIC DERIVATIVE PARP INHIBITOR AND USE THEREOF” (XIZANG HAISCO PHARMACEUTICAL CO., LTD., priority 2022, published 2025).

A short description of series [1]: Pharmacokinetic test in rats. It is filed as in vivo, SD rats. How it is done:
3.1 Experimental animal: male SD rats, about 220 g, 6-8 weeks old, 6 rats/compound, purchased from Chengdu Ddossy Experimental Animals Co., Ltd.
3.2 Experimental design: on the day of the experiment, 30 SD rats were randomly grouped according to their body weights. The animals were fasted with water available for 12 to 14 h one day before the administration and were fed 4 h after the administration.
Before and after the administration, 0.15 ml of blood was taken from the orbit of the animals under isoflurane anesthesia and placed in an EDTAK2 centrifuge tube. The blood was centrifuged at 5000 rpm and 4° C. for 10 min to collect plasma. The blood collection time points for the intravenous administration group and intragastric administration group were 0, 5 min, 15 min, 30 min, 1 h, 2 h, 4 h, 6 h, 8 h and 24 h. The brain tissues were collected 24 hours after administration, rinsed with cold physiological saline to remove the residual blood on the surface, drained out and then homogenized. Before analysis and detection, all samples were stored at −80° C. The samples were analyzed quantitatively by LC-MS/MS.

Another series has as its target PARP-1 enzyme (Homo sapiens (Human), UniProt P09874). The series is described as follows: PARP-1 enzyme activity test (chemical fluorescence detection kit, BPS Bioscience). It is filed as biochemical. The following applies: grades; read-out: PARP-1 enzyme activity IC50. How it is done:
PARP-1 chemical fluorescence detection kit was purchased from BPS Bioscience. The histone solution in the kit was diluted 5× with 1×PBS, and 25 μL of the diluted histone solution was added to a microwell plate and incubated overnight at 4° C. After the incubation, the plate was washed three times with PBST (0.05% Tween-20). 100 μL of the blocking solution was added to the microwell plate and incubated at 25° C. for 90 minutes. After the incubation was completed, the plate was washed three times with PBST. 2.5 μL of compounds at different concentrations diluted in test buffer and 12.5 μL of substrate mixed solution (1.25 μL 10×PARP test buffer; 1.25 μL 10×PARP test mixed solution; 2.5 μL Activated DNA, 7.5 μL double-distilled water) were added to the microwell plate. The PARP-1 enzyme was diluted to 2 ng/μL, […] was added to the microwell plate, and the reaction system was incubated at 25° C. for 60 minutes.
After the incubation was completed, the plate was washed three times with PBST. Streptavidin-HRP was diluted 50× with a blocking solution, and 25 μL of the diluent was added to the microwell plate and incubated at 25° C. for 30 minutes. After the incubation, the plate was washed three times with PBST. ELISA ECL substrate A and substrate B were uniformly mixed at a ratio of 1:1 (v/v), 50 μL of the mixture was added to the microwell plate, and the chemiluminescence value was read.
The inhibition rate was calculated according to formula 1, where RLUsample was the readout of the compound well, RLUmax was the readout of the solvent control well, and RLUmin was the readout of the control well without the PARP-1 enzyme. Curve fitting was performed by four parameters (log(inhibitor) vs. response—Variable slope) using GraphPad Prism software, and the ICso value was calculated.
Inhibition %=(1−(RLUsample−RLUmin)/(RLUmax−RLUmin))×100% (formula 1)

Series [2] in a line: Pharmacokinetic test in monkeys. It is filed as in vivo, cynomolgus monkeys. Here is the method: 6.1 Experimental animal: male cynomolgus monkeys, 3-5 kg, 3-6 years old, 4 monkeys/compound, purchased from Suzhou Xishan Biotechnology Inc.
6.2 Test method: On the day of the experiment, 8 monkeys were randomly grouped according to their body weights. The animals were fasted with water available for 14 to 18 h one day before the administration, and were fed 4 h after the administration.
Before and after the administration, 1.0 mL of blood was taken from the limb veins and placed in an EDTAK2 centrifuge tube. The blood was centrifuged at 5000 rpm and 4° C. for 10 min to collect plasma. The blood collection time points for the intravenous administration group were 0, 5 min, 15 min, 30 min, 1 h, 2 h, 4 h, 6 h, 8 h, 10 h, 12 h, 24 h and 48 h. Before analysis and detection, all samples were stored at −80° C. The samples were analyzed quantitatively by LC-MS/MS.

The next series has as its system MDA-MB-436 cells. The series is described as follows: MDA-MB-436 cell activity test (CellTiter-Glo, 7 days). It is filed as cell-based. The following applies: Homo sapiens. How it is done: Breast tumor cells MDA-MB-436 were purchased from ATCC, the culture medium was Leibovitz's L-15+10% FBS, and the cells were cultured in a CO2-free incubator at 37° C. On day 1, the cells in the exponential growth phase were collected, and the cell suspension was adjusted to 4000 cells/135 μL with the culture medium. 135 μL of the cell suspension was added to each well of a 96-well cell culture plate and incubated overnight. On day 2, compounds at different concentrations were added, and the plate was placed in the incubator and incubated for 7 days. After the incubation was completed, according to operation instructions for a CellTiter-Glo kit (Promega, G7573), 75 μL of CTG solution, which was already pre-melted and equilibrated to room temperature, was added to each well, and the mixture was uniformly mixed for 2 min using a microplate shaker. The plate was placed at room temperature for 10 min, and then […] were measured using an Envision2104 plate reader (PerkinElmer). The inhibition rate was calculated using formula (1), where RLUcompound was the readout of the drug treated group, RLUcontrol was the average value of the vehicle control group, and RLUblank was the average value of the cell-free well. The IC50 value was calculated using GraphPad Prism software

A short description of series [3]: Pharmacokinetic test in beagle dogs. It is filed as in vivo. How it is done: 5.1 Experimental animal: male beagle dogs, about 8-11 kg, 6 beagle dogs/compound, purchased from Beijing Marshall Biotechnology Co., Ltd.
5.2 Test method: on the day of the experiment, 6 beagle dogs were randomly grouped according to their body weights. The animals were fasted with water available for 12 to 14 h one day before the administration and were fed 4 h after the administration. The administration was performed according to Table 7.
Before and after the administration, 1 ml of blood was taken from the jugular veins or limb veins, and placed in an EDTAK2 centrifuge tube. The blood was centrifuged at 5000 rpm and 4° C. for 10 min to collect plasma. The blood collection time points for the intravenous administration group and intragastric administration group were 0, 5 min, 15 min, 30 min, 1 h, 2 h, 4 h, 6 h, 8 h, 10 h, 12 h, 24 h and 48 h. Before analysis and detection, all samples were stored at −80° C. The samples were analyzed quantitatively by LC-MS/MS.

The mark [4] stands for this setting: male, SD, rat, iv, rats, i.v. 2.5 mg/kg, plasma.
[5] abbreviates: male, cynomolgus monkey, iv, monkeys, i.v. (0.5 mg/kg), plasma.
Setting [6] is: male, dog, iv, beagle dogs, i.v. (0.2 mg/kg), plasma.

Sequence of PARP-1 enzyme (P09874 whole entry): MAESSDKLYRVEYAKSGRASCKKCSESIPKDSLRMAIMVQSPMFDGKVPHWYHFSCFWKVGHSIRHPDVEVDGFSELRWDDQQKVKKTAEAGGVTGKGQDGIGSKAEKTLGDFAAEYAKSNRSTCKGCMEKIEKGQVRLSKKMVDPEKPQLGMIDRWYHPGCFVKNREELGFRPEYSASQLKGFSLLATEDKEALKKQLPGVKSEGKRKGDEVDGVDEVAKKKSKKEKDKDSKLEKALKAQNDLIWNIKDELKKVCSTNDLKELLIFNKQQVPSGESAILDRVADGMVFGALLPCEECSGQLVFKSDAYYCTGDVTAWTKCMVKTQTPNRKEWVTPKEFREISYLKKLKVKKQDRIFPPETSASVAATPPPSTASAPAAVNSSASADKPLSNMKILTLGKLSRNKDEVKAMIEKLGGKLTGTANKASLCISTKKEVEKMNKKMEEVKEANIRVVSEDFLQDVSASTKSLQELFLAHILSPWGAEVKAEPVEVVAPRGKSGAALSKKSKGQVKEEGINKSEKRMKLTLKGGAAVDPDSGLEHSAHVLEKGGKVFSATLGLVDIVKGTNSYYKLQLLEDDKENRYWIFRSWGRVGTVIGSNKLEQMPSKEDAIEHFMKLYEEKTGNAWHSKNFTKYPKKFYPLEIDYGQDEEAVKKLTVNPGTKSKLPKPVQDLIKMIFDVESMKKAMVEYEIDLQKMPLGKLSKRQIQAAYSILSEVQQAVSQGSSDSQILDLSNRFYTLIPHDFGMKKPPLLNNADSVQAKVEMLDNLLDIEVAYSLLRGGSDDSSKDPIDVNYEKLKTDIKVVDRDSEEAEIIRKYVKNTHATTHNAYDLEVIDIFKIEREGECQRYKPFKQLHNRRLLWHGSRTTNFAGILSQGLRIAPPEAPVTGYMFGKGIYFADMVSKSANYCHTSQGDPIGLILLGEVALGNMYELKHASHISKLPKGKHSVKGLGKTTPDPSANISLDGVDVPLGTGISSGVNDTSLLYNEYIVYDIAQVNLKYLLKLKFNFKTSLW

With `O=C(NC1CC1)c1ccc(N2CCN(Cc3ccc4nc(C(F)F)c(=O)[nH]c4c3F)CC2)c(F)n1` [Compound 12, N-cyclopropyl-5-(4-((2-(difluoromethyl)-5-fluoro-3-oxo-3,4-dihydroquinoxalin-6-yl)methyl)piperazin-1-yl)-6-fluoropicolinamide], the “pharmacokinetic characteristics in rats” value in series [1] (conclusion in words) is “good pharmacokinetic characteristics”. Further, in series [1] (male, SD, rat, brain/plasma, intravenous, 2.5 mg/kg, rats, 24 h after administration, read-out: Brain/Plasma Ratio (24 h)), the Kp at 24 h was found to be 1.5. The AUC(0-t) in series [1] (setting [4]) is 14500 ± 4760 ng·h/mL; in series [1] (male, SD, rat, po, rats, i.g. 10 mg/kg, plasma), 63300 ± 19600 ng·h/mL; in series [2] (setting [5]), 5470 ± 422 ng·h/mL; in series [2] (male, cynomolgus monkey, po, monkeys, i.g. (3 mg/kg), plasma), 20700 ± 1990 ng·h/mL; in series [3] (setting [6]) it was 1950 ± 474 ng·h/mL; in series [3] (male, dog, po, beagle dogs, i.g. (3 mg/kg), plasma) it was 19000 ± 2890 ng·h/mL. The clearance came to 3.13 ± 1.2 mL/min/kg in series [1] (setting [4]), 1.5 ± 0.13 mL/min/kg in series [2] (setting [5]) and 3.47 ± 0.98 mL/min/kg in series [3] (setting [6]). In addition, the Vd in series [1] (male, SD, rat, iv, rats, i.v. 2.5 mg/kg, plasma, read-out: Vdss) stood at 0.631 ± 0.12 L/kg; in series [2] (male, cynomolgus monkey, iv, monkeys, i.v. (0.5 mg/kg), plasma, read-out: Vdss), 0.419 ± 0.02 L/kg; in series [3] (male, dog, iv, beagle dogs, i.v. (0.2 mg/kg), plasma, read-out: Vdss), 1.52 ± 0.45 L/kg. The bioavailability in series [1] (male, SD, rat, plasma, po, rats, i.g. 10 mg/kg) was not below 98%; in series [2] (male, cynomolgus monkey, plasma, po, monkeys, i.g. (3 mg/kg)) it was 63.2 ± 6.1%; in series [3] (male, dog, plasma, po, beagle dogs, i.g. (3 mg/kg)), not below 98%. The concentration for half-maximal inhibition (IC50) at PARP-1 enzyme was less than 0.005 µM; in the series with MDA-MB-436 cells (MDA-MB-436, 168 h, 7 days incubation) it was 0.0102 µM. Besides, the “pharmacokinetic characteristics in monkeys” value in series [2] (conclusion in words) is reported as “good pharmacokinetic characteristics”. In the series with MDA-MB-436 cells (10 μM, MDA-MB-436 cells, read-out: Max inh. % 10 μM), the inhibition at 10 µM came to 74.5%. In addition, the “pharmacokinetic characteristics in dogs” value in series [3] (conclusion in words) is recorded as “good pharmacokinetic characteristics”.

In general, AUC(0-t) refers to exposure summed from dosing to a finite time, without extrapolation to infinity. A higher AUC(0-t) goes with high exposure. What is called clearance is a measure of how efficiently the substance is removed, as volume per time. Low values mean a low capacity for elimination, high ones a high capacity for elimination. What is called bioavailability is the share of a dose that reaches the circulation, judged against a reference dose that is usually intravenous. A higher bioavailability goes with good availability. As a reminder, the IC50 is the concentration at which inhibition is half-maximal.
